Literature values as cited in patent US9095514B2, “Pharmaceutical composition” (SUN PHARMA ADVANCED RESEARCH COMPANY LTD., priority 2009, dated 2015).

- stability in certain solvents (Sara Wu et al J. Pharm. Sci 89): quite unstable
- solubility of solid bortezomib (at 1 mg/ml in 0.9% w/v of sodium chloride): not soluble
- not stable for longer than (stored at 2° C.-8° C., U.S. Pat. No. 6,713,446): 3-6 months
- stable for (HPLC purity>97%) (stored at −2° C. to −20° C., U.S. Pat. No. 6,713,446): more than 2 years
SMILES: CC(C)C[C@H](NC(=O)[C@H](Cc1ccccc1)NC(=O)c1cnccn1)B(O)O [Bortezomib, N-(2-pyrazine) carbonyl-L-phenylalanine-L-leucine boronic acid]
